Test results published in US7632811B2, “Analogs of parathyroid hormone” (Societe de Conseils de Recherches et D'Applications …, priority 1995, dated 2009).
Non-standard residues stand in square brackets, D forms with d. Residues, ends and D or L forms follow the SMILES beside them. Cha = N[C@@H](CC1CCCCC1)C(=O)O; Aib = CC(C)(N)C(=O)O

Target: T1, PTH receptor present on SaOS-2 (human osteosarcoma cells) (Homo sapiens, UniProt Q03431)
T1 construct: host or cells: SaOS-2 human osteosarcoma cells (intact, confluent monolayers)
T1 sequence (Q03431 27-593): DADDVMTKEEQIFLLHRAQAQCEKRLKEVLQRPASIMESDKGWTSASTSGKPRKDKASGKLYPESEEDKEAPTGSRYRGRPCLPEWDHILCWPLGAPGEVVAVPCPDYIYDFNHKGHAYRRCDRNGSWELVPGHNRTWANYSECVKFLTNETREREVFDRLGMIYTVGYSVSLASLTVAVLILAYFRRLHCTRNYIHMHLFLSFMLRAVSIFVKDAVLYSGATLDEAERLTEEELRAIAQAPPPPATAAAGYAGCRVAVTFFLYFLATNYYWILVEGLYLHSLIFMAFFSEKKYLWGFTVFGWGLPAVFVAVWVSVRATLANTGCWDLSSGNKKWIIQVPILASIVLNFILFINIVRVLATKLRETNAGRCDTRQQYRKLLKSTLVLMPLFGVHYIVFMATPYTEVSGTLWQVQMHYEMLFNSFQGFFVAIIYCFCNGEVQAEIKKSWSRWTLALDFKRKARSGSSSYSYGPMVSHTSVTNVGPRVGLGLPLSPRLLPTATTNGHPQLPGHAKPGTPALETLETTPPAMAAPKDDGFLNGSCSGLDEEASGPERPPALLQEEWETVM
Assay: Binding to PTH receptor on SaOS-2 cells (competition with mono-125I-[Nle8,18,Tyr34(3-125I)]bPTH(1-34)NH2)
Settings: Table I, 2 hrs at room temperature, read-out: Kd (half maximal inhibition of binding of mono-125I-[Nle8,18, Tyr34(3-125I)]bPTH(1-34)NH2)
Procedure: A. Binding to PTH Receptor
The peptides of the invention were tested for their ability to bind to the PTH receptor present on SaOS-2 (human osteosarcoma cells). SaOS-2 cells (American Type Culture Collection, Rockville, Md.; ATCC #HTB 85) were maintained in RPMI 1640 medium (Sigma, St. Louis, Mo.) supplemented with 10% fetal bovine serum (FBS) and 2 mM glutamine at 37EC in a humidified atmosphere of 5% CO2 in air. The medium was changed every three or four days, and the cells were subcultured every week by trypsinization.
SaOS-2 cells were maintained for four days until they had reached confluence. The medium was replaced with 5% FBS in RPMI 1640 medium and incubated for 2 hrs at room temperature with 10×10^4 cpm mono-^125I-[Nle^8,18, Tyr^34(3-^125I)]bPTH(1-34)NH2 in the presence of a competing peptides of the invention at various concentrations between 10^−11 M to 10^−4 M. The cells were washed four times with ice-cold PBS and lysed with 0.1 M NaOH, and the radioactivity associated with the cells was counted in a scintillation counter. Synthesis of mono-^125I-[Nle^8,18, Tyr^34(3-^125I)]bPTH(1-34)NH2 was carried out as described in Goldman, M. E., et al., Endocrinol., 123:1468 (1988).
The binding assay was conducted with various peptides of the invention, and the Kd value (half maximal inhibition of binding of mono-^125I-[Nle^8,18, Tyr^34(3-^125I)]bPTH(1-34)NH2) for each peptide was calculated.

Row | SMILES | Kd [nM]
1 | CC[C@H](C)[C@H](NC(=O)[C@H](CCC(=O)O)NC(=O)C(C)(C)NC(=O)[C@@H](NC(=O)[C@@H](N)CO)C(C)C)C(=O)N[C@@H](CCC(N)=O)C(=O)N[C@@H](CC(C)C)C(=O)N[C@@H](CCSC)C(=O)N[C@@H](Cc1c[nH]cn1)C(=O)N[C@@H](CC(N)=O)C(=O)N[C@@H](CC(C)C)C(=O)NCC(=O)N[C@@H](CCCCN)C(=O)N[C@@H](Cc1c[nH]cn1)C(=O)N[C@@H](CC(C)C)C(=O)N[C@@H](CC(N)=O)C(=O)N[C@@H](CO)C(=O)N[C@@H](CCSC)C(=O)N[C@@H](CCC(=O)O)C(=O)N[C@@H](CCCNC(=N)N)C(=O)N[C@H](C(=O)N[C@@H](CCC(=O)O)C(=O)N[C@@H](Cc1c[nH]c2ccccc12)C(=O)N[C@@H](CC(C)C)C(=O)N[C@@H](CCCNC(=N)N)C(=O)N[C@@H](CCCCN)C(=O)N[C@@H](CCCCN)C(=O)N[C@@H](CC(C)C)C(=O)N[C@@H](CCC(N)=O)C(=O)N[C@@H](CC(=O)O)C(=O)N[C@H](C(=O)N[C@@H](Cc1c[nH]cn1)C(=O)N[C@@H](CC(N)=O)C(=O)N[C@@H](Cc1ccccc1)C(N)=O)C(C)C)C(C)C [[Aib^3]hPTH(1-34)NH2] (H-SV[Aib]EIQLMHNLGKHLNSMERVEWLRKKLQDVHNF-NH2) | 4
2 | CC[C@H](C)[C@H](NC(=O)[C@H](CCC(=O)O)NC(=O)[C@H](CO)NC(=O)[C@@H](NC(=O)[C@@H](N)CO)C(C)C)C(=O)N[C@@H](CCC(N)=O)C(=O)N[C@@H](CC(C)C)C(=O)N[C@@H](CCSC)C(=O)N[C@@H](Cc1c[nH]cn1)C(=O)N[C@@H](CC(N)=O)C(=O)N[C@@H](CC(C)C)C(=O)NC(C)(C)C(=O)N[C@@H](CCCCN)C(=O)N[C@@H](Cc1c[nH]cn1)C(=O)N[C@@H](CC(C)C)C(=O)N[C@@H](CC(N)=O)C(=O)N[C@@H](CO)C(=O)N[C@@H](CCSC)C(=O)N[C@@H](CCC(=O)O)C(=O)N[C@@H](CCCNC(=N)N)C(=O)N[C@H](C(=O)N[C@@H](CCC(=O)O)C(=O)N[C@@H](Cc1c[nH]c2ccccc12)C(=O)N[C@@H](CC(C)C)C(=O)N[C@@H](CCCNC(=N)N)C(=O)N[C@@H](CCCCN)C(=O)N[C@@H](CCCCN)C(=O)N[C@@H](CC(C)C)C(=O)N[C@@H](CCC(N)=O)C(=O)N[C@@H](CC(=O)O)C(=O)N[C@H](C(=O)N[C@@H](Cc1c[nH]cn1)C(=O)N[C@@H](CC(N)=O)C(=O)N[C@@H](Cc1ccccc1)C(N)=O)C(C)C)C(C)C [[Aib^12]hPTH(1-34)NH2] (H-SVSEIQLMHNL[Aib]KHLNSMERVEWLRKKLQDVHNF-NH2) | 5
3 | CC[C@H](C)[C@H](NC(=O)[C@H](CCC(=O)O)NC(=O)[C@H](CO)NC(=O)[C@@H](NC(=O)[C@@H](N)CO)C(C)C)C(=O)N[C@@H](CCC(N)=O)C(=O)N[C@@H](CC(C)C)C(=O)N[C@@H](CCSC)C(=O)N[C@@H](Cc1c[nH]cn1)C(=O)N[C@@H](CC(N)=O)C(=O)N[C@@H](CC(C)C)C(=O)NCC(=O)N[C@@H](CCCCN)C(=O)N[C@@H](Cc1c[nH]cn1)C(=O)N[C@@H](CC(C)C)C(=O)NC(C)(C)C(=O)N[C@@H](CO)C(=O)N[C@@H](CCSC)C(=O)NC(C)(C)C(=O)N[C@@H](CCCNC(=N)N)C(=O)N[C@H](C(=O)N[C@@H](CCC(=O)O)C(=O)N[C@@H](Cc1c[nH]c2ccccc12)C(=O)N[C@@H](CC(C)C)C(=O)N[C@@H](CCCNC(=N)N)C(=O)N[C@@H](CCCCN)C(=O)N[C@@H](CCCCN)C(=O)N[C@@H](CC(C)C)C(=O)N[C@@H](CCC(N)=O)C(=O)N[C@@H](CC(=O)O)C(=O)N[C@H](C(=O)N[C@@H](Cc1c[nH]cn1)C(=O)N[C@@H](CC(N)=O)C(=O)N[C@@H](Cc1ccccc1)C(N)=O)C(C)C)C(C)C [[Aib^16,19]hPTH(1-34)NH2] (H-SVSEIQLMHNLGKHL[Aib]SM[Aib]RVEWLRKKLQDVHNF-NH2) | 4
4 | CC[C@H](C)[C@H](NC(=O)[C@H](CCC(=O)O)NC(=O)[C@H](CO)NC(=O)[C@@H](NC(=O)[C@@H](N)CO)C(C)C)C(=O)N[C@@H](CCC(N)=O)C(=O)N[C@@H](CC(C)C)C(=O)N[C@@H](CCSC)C(=O)N[C@@H](Cc1c[nH]cn1)C(=O)N[C@@H](CC(N)=O)C(=O)N[C@@H](CC(C)C)C(=O)NCC(=O)N[C@@H](CCCCN)C(=O)N[C@@H](Cc1c[nH]cn1)C(=O)N[C@@H](CC(C)C)C(=O)NC(C)(C)C(=O)N[C@@H](CO)C(=O)N[C@@H](CCSC)C(=O)N[C@@H](CCC(=O)O)C(=O)N[C@@H](CCCNC(=N)N)C(=O)N[C@H](C(=O)N[C@@H](CCC(=O)O)C(=O)N[C@@H](Cc1c[nH]c2ccccc12)C(=O)N[C@@H](CC(C)C)C(=O)N[C@@H](CCCNC(=N)N)C(=O)N[C@@H](CCCCN)C(=O)N[C@@H](CCCCN)C(=O)N[C@@H](CC(C)C)C(=O)N[C@@H](CCC(N)=O)C(=O)N[C@@H](CC(=O)O)C(=O)N[C@H](C(=O)N[C@@H](Cc1c[nH]cn1)C(=O)N[C@@H](CC(N)=O)C(=O)N[C@@H](Cc1ccccc1)C(N)=O)C(C)C)C(C)C [[Aib^16]hPTH(1-34)NH2] (H-SVSEIQLMHNLGKHL[Aib]SMERVEWLRKKLQDVHNF-NH2) | 4
5 | CC[C@H](C)[C@H](NC(=O)[C@H](CCC(=O)O)NC(=O)[C@H](CO)NC(=O)[C@@H](NC(=O)[C@@H](N)CO)C(C)C)C(=O)N[C@@H](CCC(N)=O)C(=O)N[C@@H](CC(C)C)C(=O)N[C@@H](CCSC)C(=O)N[C@@H](Cc1c[nH]cn1)C(=O)N[C@@H](CC(N)=O)C(=O)N[C@@H](CC(C)C)C(=O)NCC(=O)N[C@@H](CCCCN)C(=O)N[C@@H](Cc1c[nH]cn1)C(=O)N[C@@H](CC(C)C)C(=O)N[C@@H](CC(N)=O)C(=O)N[C@@H](CO)C(=O)N[C@@H](CCSC)C(=O)NC(C)(C)C(=O)N[C@@H](CCCNC(=N)N)C(=O)N[C@H](C(=O)N[C@@H](CCC(=O)O)C(=O)N[C@@H](Cc1c[nH]c2ccccc12)C(=O)N[C@@H](CC(C)C)C(=O)N[C@@H](CCCNC(=N)N)C(=O)N[C@@H](CCCCN)C(=O)N[C@@H](CCCCN)C(=O)N[C@@H](CC(C)C)C(=O)N[C@@H](CCC(N)=O)C(=O)N[C@@H](CC(=O)O)C(=O)N[C@H](C(=O)N[C@@H](Cc1c[nH]cn1)C(=O)N[C@@H](CC(N)=O)C(=O)N[C@@H](Cc1ccccc1)C(N)=O)C(C)C)C(C)C [[Aib^19]hPTH(1-34)NH2] (H-SVSEIQLMHNLGKHLNSM[Aib]RVEWLRKKLQDVHNF-NH2) | 5
6 | CC[C@H](C)[C@H](NC(=O)[C@H](CCC(=O)O)NC(=O)[C@H](CO)NC(=O)[C@@H](NC(=O)[C@@H](N)CO)C(C)C)C(=O)N[C@@H](CCC(N)=O)C(=O)N[C@@H](CC(C)C)C(=O)N[C@@H](CCSC)C(=O)N[C@@H](Cc1c[nH]cn1)C(=O)N[C@@H](CC(N)=O)C(=O)N[C@@H](CC(C)C)C(=O)NCC(=O)N[C@@H](CCCCN)C(=O)N[C@@H](Cc1c[nH]cn1)C(=O)N[C@@H](CC(C)C)C(=O)N[C@@H](CC(N)=O)C(=O)N[C@@H](CO)C(=O)N[C@@H](CCSC)C(=O)N[C@@H](CCC(=O)O)C(=O)N[C@@H](CCCNC(=N)N)C(=O)N[C@H](C(=O)N[C@@H](CCC(=O)O)C(=O)N[C@@H](Cc1c[nH]c2ccccc12)C(=O)N[C@@H](CC(C)C)C(=O)N[C@@H](CCCNC(=N)N)C(=O)N[C@@H](CCCCN)C(=O)N[C@@H](CCCCN)C(=O)N[C@@H](CC(C)C)C(=O)N[C@@H](CCC(N)=O)C(=O)N[C@@H](CC(=O)O)C(=O)N[C@H](C(=O)N[C@@H](Cc1c[nH]cn1)C(=O)N[C@@H](CC(N)=O)C(=O)NC(C)(C)C(N)=O)C(C)C)C(C)C [[Aib^34]hPTH(1-34)NH2] | 7
7 | CC[C@H](C)[C@H](NC(=O)[C@H](CCC(=O)O)NC(=O)[C@H](CO)NC(=O)[C@@H](NC(=O)[C@@H](N)CO)C(C)C)C(=O)N[C@@H](CCC(N)=O)C(=O)N[C@@H](CC1CCCCC1)C(=O)N[C@@H](CCSC)C(=O)N[C@@H](Cc1c[nH]cn1)C(=O)N[C@@H](CC(N)=O)C(=O)N[C@@H](CC1CCCCC1)C(=O)NCC(=O)N[C@@H](CCCCN)C(=O)N[C@@H](Cc1c[nH]cn1)C(=O)N[C@@H](CC(C)C)C(=O)NC(C)(C)C(=O)N[C@@H](CO)C(=O)N[C@@H](CCSC)C(=O)N[C@@H](CCC(=O)O)C(=O)N[C@@H](CCCNC(=N)N)C(=O)N[C@H](C(=O)N[C@@H](CCC(=O)O)C(=O)N[C@@H](Cc1c[nH]c2ccccc12)C(=O)N[C@@H](CC(C)C)C(=O)N[C@@H](CCCNC(=N)N)C(=O)N[C@@H](CCCCN)C(=O)N[C@@H](CCCCN)C(=O)N[C@@H](CC(C)C)C(=O)N[C@@H](CCC(N)=O)C(=O)N[C@@H](CC(=O)O)C(=O)N[C@H](C(=O)N[C@@H](Cc1c[nH]cn1)C(=O)N[C@@H](CC(N)=O)C(=O)N[C@@H](Cc1ccccc1)C(N)=O)C(C)C)C(C)C [[Cha^7,11, Aib^16]hPTH(1-34)NH2] (H-SVSEIQ[Cha]MHN[Cha]GKHL[Aib]SMERVEWLRKKLQDVHNF-NH2) | 4
